Consider 32 compounds from ChEMBL document CHEMBL4312026, “Synthesis, biological and molecular dynamics investigations with a series of triazolopyrimidine/triazole-based benzenesulfonamides as novel carbonic anhydrase inhibitors” (Eur J Med Chem, 2020).

In data set [1] the target is T1, Carbonic anhydrase 1 (Homo sapiens, UniProt P00915). Nature of the data set: Inhibition of recombinant human carbonic anhydrase-1 incubated for 15 mins by stopped flow CO2 hydrase assay.
For data set [2], the target named is T2, Carbonic anhydrase 2 (Homo sapiens, UniProt P00918). Nature of the data set: Inhibition of recombinant human carbonic anhydrase-2 incubated for 15 mins by stopped flow CO2 hydrase assay.
The target of data set [3] is T3, Carbonic anhydrase 9 (Homo sapiens, UniProt Q16790). Nature of the data set: Inhibition of recombinant human carbonic anhydrase-9 incubated for 15 mins by stopped flow CO2 hydrase assay.
The target of data set [4] is T1, Carbonic anhydrase 1. Nature of the data set: Inhibition of recombinant human carbonic anhydrase-1 at 0.01 uM after 15 mins by stopped flow CO2 hydrase assay (reference value: 0%).
Data set [5] has as its target T1, Carbonic anhydrase 1. Nature of the data set: Inhibition of recombinant human carbonic anhydrase-1 at 0.1 uM after 15 mins by stopped flow CO2 hydrase assay (reference value: 0%).
For data set [6], the target named is T1, Carbonic anhydrase 1. Nature of the data set: Inhibition of recombinant human carbonic anhydrase-1 at 1 uM after 15 mins by stopped flow CO2 hydrase assay (reference value: 0%).
The target of data set [7] is T1, Carbonic anhydrase 1. Nature of the data set: Inhibition of recombinant human carbonic anhydrase-1 at 10 uM after 15 mins by stopped flow CO2 hydrase assay (reference value: 0%).
Data set [8] concerns the target T2, Carbonic anhydrase 2. Nature of the data set: Inhibition of recombinant human carbonic anhydrase-2 at 0.01 uM after 15 mins by stopped flow CO2 hydrase assay (reference value: 0%).
Data set [9] has as its target T2, Carbonic anhydrase 2. Nature of the data set: Inhibition of recombinant human carbonic anhydrase-2 at 0.1 uM after 15 mins by stopped flow CO2 hydrase assay (reference value: 0%).
Data set [10] concerns the target T2, Carbonic anhydrase 2. Nature of the data set: Inhibition of recombinant human carbonic anhydrase-2 at 1 uM after 15 mins by stopped flow CO2 hydrase assay (reference value: 0%).
Data set [11] addresses T2, Carbonic anhydrase 2. Nature of the data set: Inhibition of recombinant human carbonic anhydrase-2 at 10 uM after 15 mins by stopped flow CO2 hydrase assay (reference value: 0%).
Data set [12] deals with T3, Carbonic anhydrase 9. Nature of the data set: Inhibition of recombinant human carbonic anhydrase-9 at 0.1 nM after 15 mins by stopped flow CO2 hydrase assay (reference value: 0%).
The target in data set [13] is T3, Carbonic anhydrase 9. To be noted: at 1 nM.
Description: Inhibition of recombinant human carbonic anhydrase-9 at 1 nM after 15 mins by stopped flow CO2 hydrase assay (Rvb = 0%)
The target of data set [14] is T3, Carbonic anhydrase 9. As to conditions: at 0.01 µM.
Description: Inhibition of recombinant human carbonic anhydrase-9 at 0.01 uM after 15 mins by stopped flow CO2 hydrase assay (Rvb = 0%)
Data set [15] deals with T3, Carbonic anhydrase 9. To be noted: at 0.1 µM.
Description: Inhibition of recombinant human carbonic anhydrase-9 at 0.1 uM after 15 mins by stopped flow CO2 hydrase assay (Rvb = 0%)

T1 sequence (P00915 whole entry): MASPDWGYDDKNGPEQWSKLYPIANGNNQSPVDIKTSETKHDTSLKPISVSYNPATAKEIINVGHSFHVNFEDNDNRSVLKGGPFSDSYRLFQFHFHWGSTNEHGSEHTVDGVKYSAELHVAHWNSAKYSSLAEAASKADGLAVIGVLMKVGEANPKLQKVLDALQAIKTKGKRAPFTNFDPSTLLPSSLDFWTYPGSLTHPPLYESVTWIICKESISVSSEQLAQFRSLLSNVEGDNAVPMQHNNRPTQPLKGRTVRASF

The Ki is a dissociation constant, usually derived from enzyme kinetics or from competition with a known ligand. With `Cc1cc(=O)n2c(C(=O)NN)nn(-c3ccc(S(N)(=O)=O)cc3)c2n1`, the Ki on Carbonic anhydrase 1 [1] was found to be 1680 nM; on Carbonic anhydrase 2 [2], 74.7 nM; at Carbonic anhydrase 9 [3], 45.4 nM.

With `Nc1nc(C(=O)NNC(=S)Nc2ccccc2)nn1-c1ccc(S(N)(=O)=O)cc1`, the Ki was 368 nM at Carbonic anhydrase 1 [1], 9.7 nM at Carbonic anhydrase 2 [2] and 40.2 nM on Carbonic anhydrase 9 [3].

For `NS(=O)(=O)c1ccc(-n2nnc(C(=O)N/N=C(/CC(=O)c3ccccn3)C(F)(F)F)c2-c2ccccc2)cc1`, the Ki at Carbonic anhydrase 9 [3] stood at 0.7 nM.

Turning to `COC(=O)c1nn(-c2ccc(S(N)(=O)=O)cc2)c2nc3cc(-c4cccs4)cc(-c4ccc([N+](=O)[O-])cc4)c3c(=O)n12`, the Ki at Carbonic anhydrase 9 [3] is 0.16 nM.

In the case of `Nc1nc(C(=O)N/N=C/c2ccc([N+](=O)[O-])cc2)nn1-c1ccc(S(N)(=O)=O)cc1`, the values for the Ki at Carbonic anhydrase 1 [1], at Carbonic anhydrase 2 [2] and on Carbonic anhydrase 9 [3] were 1540 nM, 24.7 nM and 34.4 nM, respectively.

With `Nc1nc(C(=O)NNC(=S)Nc2ccc(Cl)cc2)nn1-c1ccc(S(N)(=O)=O)cc1`, the Ki amounted to 598 nM at Carbonic anhydrase 1 [1], 11.1 nM on Carbonic anhydrase 2 [2] and 16.7 nM at Carbonic anhydrase 9 [3].

On to `C/C(=N\NC(=O)c1nc(N)n(-c2ccc(S(N)(=O)=O)cc2)n1)c1ccncc1`, for which the Ki on Carbonic anhydrase 1 [1] came to 295 nM; on Carbonic anhydrase 2 [2] it was 8.5 nM; on Carbonic anhydrase 9 [3], 5.8 nM.

Turning to `Nc1nc(NC(=O)Nc2ccccc2)nn1-c1ccc(S(N)(=O)=O)cc1`, the figures for the Ki on Carbonic anhydrase 1 [1], on Carbonic anhydrase 2 [2] and at Carbonic anhydrase 9 [3] were 442 nM, 9.8 nM and 8.2 nM, respectively.

As for `Nc1nc(NC(=O)Nc2ccc(F)cc2)nn1-c1ccc(S(N)(=O)=O)cc1`, the values for the Ki at Carbonic anhydrase 1 [1], at Carbonic anhydrase 2 [2] and at Carbonic anhydrase 9 [3] were 94.4 nM, 65.5 nM and 7.8 nM, respectively.

`CCOC(=O)c1nn(-c2ccc(S(N)(=O)=O)cc2)c2nc(C)cc(=O)n12`: the values for the Ki at Carbonic anhydrase 1 [1], at Carbonic anhydrase 2 [2] and at Carbonic anhydrase 9 [3] were 698 nM, 85.6 nM and 35.9 nM, respectively.

Take `Nc1nc(C(=O)N/N=C/c2cccnc2)nn1-c1ccc(S(N)(=O)=O)cc1`: the results for the Ki on Carbonic anhydrase 1 [1], on Carbonic anhydrase 2 [2] and at Carbonic anhydrase 9 [3] were 477 nM, 74.2 nM and 6.6 nM, respectively.

Broadly, the inhibition is the relative decrease from the control value, in per cent. For `COc1ccc(NC(=O)Nc2nc(N)n(-c3ccc(S(N)(=O)=O)cc3)n2)cc1`, the Ki on Carbonic anhydrase 1 [1] stood at 695 nM; at Carbonic anhydrase 2 [2], 127 nM; at Carbonic anhydrase 9 [3], 3.3 nM. In addition, the inhibition at 0.25 h, 0.01 µM stood at 14% at Carbonic anhydrase 1 [4] and 15% at Carbonic anhydrase 2 [8]. Moreover, the values for the inhibition at 0.25 h, 0.1 µM at Carbonic anhydrase 1 [5] and at Carbonic anhydrase 2 [9] were 31% and 48%, respectively. Moreover, the inhibition at 0.25 h, 1 µM on Carbonic anhydrase 1 [6] was 63%; on Carbonic anhydrase 2 [10] it was 76%. Further, the inhibition at 0.25 h, 10 µM turned out to be 75% on Carbonic anhydrase 1 [7] and 85% on Carbonic anhydrase 2 [11]. Besides, the inhibition fell in the range of 18 to 20% on Carbonic anhydrase 9 [12], 45 to 47% at Carbonic anhydrase 9 [13], 72 to 74% on Carbonic anhydrase 9 [14] and 79 to 81% against Carbonic anhydrase 9 [15].

Regarding `Nc1nc(C(=O)N/N=C/c2ccc(N3CCOCC3)cc2)nn1-c1ccc(S(N)(=O)=O)cc1`, the Ki on Carbonic anhydrase 1 [1] amounted to 988 nM; at Carbonic anhydrase 2 [2] it was 64.2 nM; on Carbonic anhydrase 9 [3] it was 19.7 nM.

For `Nc1nc(NC(=O)Nc2ccc(S(N)(=O)=O)cc2)nn1-c1ccc(S(N)(=O)=O)cc1`, the Ki at Carbonic anhydrase 1 [1] was 677 nM; on Carbonic anhydrase 2 [2], 78.7 nM; at Carbonic anhydrase 9 [3] it was 28.6 nM.

`Nc1nc(NC(=O)Nc2ccc(Cl)cc2)nn1-c1ccc(S(N)(=O)=O)cc1`: the Ki on Carbonic anhydrase 1 [1] worked out at 403 nM; on Carbonic anhydrase 2 [2], 9.5 nM; on Carbonic anhydrase 9 [3], 43.3 nM.

Regarding `Cc1cc(=O)n2c(C(=O)N/N=C/c3ccccn3)nn(-c3ccc(S(N)(=O)=O)cc3)c2n1`, the values for the Ki at Carbonic anhydrase 1 [1], on Carbonic anhydrase 2 [2] and on Carbonic anhydrase 9 [3] were 3720 nM, 537 nM and 47.9 nM, respectively.

For `C/C(=N\NC(=O)c1nc(N)n(-c2ccc(S(N)(=O)=O)cc2)n1)c1ccccc1`, the Ki on Carbonic anhydrase 1 [1] stood at 633 nM; at Carbonic anhydrase 2 [2], 8.9 nM; on Carbonic anhydrase 9 [3], 41.3 nM.

`NNC(=O)c1nc(N)n(-c2ccc(S(N)(=O)=O)cc2)n1`: the values for the Ki on Carbonic anhydrase 1 [1], at Carbonic anhydrase 2 [2] and at Carbonic anhydrase 9 [3] were 523 nM, 19.9 nM and 22.8 nM, respectively.

In the case of `CC(=O)OC[C@@H]1O[C@@H](OCc2cn(-c3ccc(S(N)(=O)=O)cc3)nn2)[C@@H](OC(C)=O)[C@H](OC(C)=O)[C@H]1OC(C)=O`, at Carbonic anhydrase 9 [3], the Ki turned out to be 9.7 nM.

Regarding `Nc1nc(C(=O)N/N=C/c2ccc(Cl)cc2)nn1-c1ccc(S(N)(=O)=O)cc1`, the Ki at Carbonic anhydrase 1 [1] amounted to 703 nM; on Carbonic anhydrase 2 [2] it was 6.9 nM; at Carbonic anhydrase 9 [3] it was 73.2 nM.

Regarding `Nc1nc(C(=O)N/N=C/c2ccc(F)cc2)nn1-c1ccc(S(N)(=O)=O)cc1`, the Ki at Carbonic anhydrase 1 [1] turned out to be 495 nM; at Carbonic anhydrase 2 [2], 65.2 nM; on Carbonic anhydrase 9 [3], 31.5 nM.

In the case of `Nc1nc(C(=O)N/N=C/c2ccccc2)nn1-c1ccc(S(N)(=O)=O)cc1`, the Ki on Carbonic anhydrase 1 [1] worked out at 771 nM; on Carbonic anhydrase 2 [2], 86.4 nM; on Carbonic anhydrase 9 [3], 41.1 nM.

Regarding `Cc1cc(=O)n2c(C(=O)N/N=C/c3ccncc3)nn(-c3ccc(S(N)(=O)=O)cc3)c2n1`, the Ki on Carbonic anhydrase 1 [1] is 2480 nM; on Carbonic anhydrase 2 [2], 456 nM; on Carbonic anhydrase 9 [3], 24.6 nM.

On to `Nc1nc(C(=O)N/N=C/c2ccc(N3CCCCC3)cc2)nn1-c1ccc(S(N)(=O)=O)cc1`, for which the Ki amounted to 825 nM at Carbonic anhydrase 1 [1], 95.4 nM at Carbonic anhydrase 2 [2] and 33 nM on Carbonic anhydrase 9 [3].

In the case of `Nc1nc(C(=O)NNC(=O)Nc2ccc(Cl)cc2)nn1-c1ccc(S(N)(=O)=O)cc1`, the Ki was found to be 537 nM on Carbonic anhydrase 1 [1], 10.9 nM at Carbonic anhydrase 2 [2] and 16.4 nM at Carbonic anhydrase 9 [3].

Regarding `COc1ccc(/C=N/NC(=O)c2nn(-c3ccc(S(N)(=O)=O)cc3)c3nc(C)cc(=O)n23)cc1`, the results for the Ki at Carbonic anhydrase 1 [1], at Carbonic anhydrase 2 [2] and on Carbonic anhydrase 9 [3] were 2380 nM, 325 nM and 63.2 nM, respectively.

For the compound `C/C(=N\NC(=O)c1nc(N)n(-c2ccc(S(N)(=O)=O)cc2)n1)c1ccc(N2CCOCC2)cc1`, the Ki was determined as 793 nM at Carbonic anhydrase 1 [1], 53.9 nM on Carbonic anhydrase 2 [2] and 31.7 nM at Carbonic anhydrase 9 [3].

On to `Cc1ccc(NC(=O)Nc2nc(N)n(-c3ccc(S(N)(=O)=O)cc3)n2)cc1`, for which the values for the Ki on Carbonic anhydrase 1 [1], at Carbonic anhydrase 2 [2] and on Carbonic anhydrase 9 [3] were 313 nM, 42.8 nM and 3.9 nM, respectively.

Turning to `Nc1nc(C(=O)NNC(=O)Nc2ccccc2)nn1-c1ccc(S(N)(=O)=O)cc1`, the Ki on Carbonic anhydrase 1 [1] was found to be 307 nM; at Carbonic anhydrase 2 [2] it was 70.5 nM; at Carbonic anhydrase 9 [3], 4.9 nM.

On to `Cc1cc(=O)n2c(C(=O)N/N=C/c3ccc(N4CCN(C)CC4)cc3)nn(-c3ccc(S(N)(=O)=O)cc3)c2n1`, for which the Ki on Carbonic anhydrase 1 [1] is 4950 nM; at Carbonic anhydrase 2 [2], 838 nM; at Carbonic anhydrase 9 [3], 85 nM.

As for `Nc1nc(C(=O)N/N=C/c2ccc(O)cc2)nn1-c1ccc(S(N)(=O)=O)cc1`, the Ki was found to be 335 nM on Carbonic anhydrase 1 [1], 8.8 nM on Carbonic anhydrase 2 [2] and 8.3 nM at Carbonic anhydrase 9 [3].

Consider `Nc1nc(NC(=O)Nc2ccc(C(=O)O)cc2)nn1-c1ccc(S(N)(=O)=O)cc1`, for which the Ki on Carbonic anhydrase 1 [1] was 507 nM; on Carbonic anhydrase 2 [2], 9.6 nM; at Carbonic anhydrase 9 [3], 15.3 nM.
